US20160145223A1, “Bicyclyl-Substituted Isothiazoline Compounds” (BASF SE, priority 2013, published 2016)

What was measured:
Format in all cases: in vivo
[1] = system: Tobacco Budworm (Heliothis virescens); test: Tobacco budworm insect diet test (B.4); conditions: 120 h, egg and larval mortality, 5 days, in comparison with untreated controls
Procedure: For evaluating control of tobacco budworm (Heliothis virescens) the test unit consisted of 96-well-microtiter plates containing an insect diet and 15-25 H. virescens eggs.
(§1) The compounds were formulated using a solution containing 75% v/v water and 25% v/v DMSO. Different concentrations of formulated compounds were sprayed onto the insect diet at 10 μl, using a custom built micro atomizer, at two replications.
(§2) After application, microtiter plates were incubated at about 28±1° C. and about 80±5% relative humidity for 5 days. Egg and larval mortality was then visually assessed.

[2] = system: Mediterranean Fruitfly (Ceratitis capitata); test: Mediterranean fruitfly insect diet test (B.6); conditions: 120 h, egg and larval mortality, 5 days, in comparison with untreated controls
Procedure: as §1, with “For evaluating control of Mediterranean fruitfly (Ceratitis capitata) the test unit consisted of microtiter plates containing an insect diet and 50-80 C. capitata eggs. The” for “The”, “5” for “10”
as §2

[3] = system: Boll Weevil (Anthonomus grandis); test: Boll weevil insect diet test (B.5); conditions: 120 h, egg and larval mortality, 5 days, in comparison with untreated controls
Procedure: For evaluating control of boll weevil (Anthonomus grandis) the test unit consisted of 96-well-microtiter plates containing an insect diet and 5-10 A. grandis eggs.
The compounds were formulated using a solution containing 75% v/v water and 25% v/v DMSO. Different concentrations of formulated compounds were sprayed onto the insect diet at 5 μl, using a custom built micro atomizer, at two replications.
After application, microtiter plates were incubated at about 25±1° C. and about 75±5% relative humidity for 5 days. Egg and larval mortality was then visually assessed.

[4] = system: Green Peach Aphid (Myzus persicae); test: Green peach aphid artificial diet test, systemic (B.2); conditions: 72 h, adult aphids on treated artificial diet, 3 days, in comparison with untreated controls
From the text: For evaluating control of green peach aphid (Myzus persicae) through systemic means the test unit consisted of 96-well-microtiter plates containing liquid artificial diet under an artificial membrane.
The compounds were formulated using a solution containing 75% v/v water and 25% v/v DMSO. Different concentrations of formulated compounds were pipetted into the aphid diet, using a custom built pipetter, at two replications.
After application, 5-8 adult aphids were placed on the artificial membrane inside the microtiter plate wells. The aphids were then allowed to suck on the treated aphid diet and incubated at about 23±1° C. and about 50±5% relative humidity for 3 days. Aphid mortality and fecundity was then visually assessed.

[5] = system: Orchid Thrips (Dichromothrips corbetti); test: Orchid thrips floral-immersion test (B.7); conditions: adult thrips on dipped orchid petals, 72 hours after treatment, in comparison with untreated controls
Procedure: Dichromothrips corbetti adults used for bioassay were obtained from a colony maintained continuously under laboratory conditions. For testing purposes, the test compound is diluted in a 1:1 mixture of acetone:water (vol:vol), plus Kinetic HV at a rate of 0.01% v/v.
Thrips potency of each compound was evaluated by using a floral-immersion technique. All petals of individual, intact orchid flowers were dipped into treatment solution and allowed to dry in Petri dishes. Treated petals were placed into individual re-sealable plastic along with about 20 adult thrips. All test arenas were held under continuous light and a temperature of about 28° C. for duration of the assay. After 3 days, the numbers of live thrips were counted on each petal. The percent mortality was recorded 72 hours after treatment.

[6] = system: Rice green leafhopper (Nephotettix virescens); test: Rice green leafhopper rice seedling spray test (B.8); conditions: adults on sprayed rice seedlings, after 72 hours, in comparison with untreated controls
Procedure: Rice seedlings were cleaned and washed 24 hours before spraying. The active compounds were formulated in 1:1 acetone:water (vol:vol), and 0.01% vol/vol surfactant (Kinetic HV) was added. Potted rice seedlings were sprayed with 5-6 ml test solution, air dried, covered with Mylar cages cages and inoculated with 10 adults. Treated rice plants were kept at about 28-29° C. and relative humidity of about 50-60%. Percent mortality was recorded after 72 hours.

[7] = system: Vetch Aphid (Megoura viciae); test: Vetch aphid broad bean leaf disk test (B.3); conditions: foliar, 120 h, adult aphids on sprayed leaf disks, 5 days, in comparison with untreated controls
Procedure: For evaluating control of vetch aphid (Megoura viciae) through contact or systemic means the test unit consisted of 24-well-microtiter plates containing broad bean leaf disks.
The compounds were formulated using a solution containing 75% v/v water and 25% v/v DMSO. Different concentrations of formulated compounds were sprayed onto the leaf disks at 2.5 μl, using a custom built micro atomizer, at two replications.
After application, the leaf disks were air-dried and 5-8 adult aphids placed on the leaf disks inside the microtiter plate wells. The aphids were then allowed to suck on the treated leaf disks and incubated at about 23±1° C. and about 50±5% relative humidity for 5 days. Aphid mortality and fecundity was then visually assessed.

[8] = system: Red Spider Mite (Tetranychus kanzawai); test: Red spider mite cowpea spray test (B.9); conditions: mites on sprayed cowpea beans, 72 hours after treatment, in comparison with untreated controls
Procedure: The active compound was dissolved at the desired concentration in a mixture of 1:1 (vol:vol) distilled water:acetone. Add surfactant (Kinetic HV) was added at a rate of 0.01% (vol/vol). The test solution was prepared at the day of use.
Potted cowpea beans of 4-5 days of age were cleaned with tap water and sprayed with 1-2 ml of the test solution using air driven hand atomizer. The treated plants were allowed to air dry and afterwards inoculated with 30 or more mites by clipping a cassava leaf section from rearing population. Treated plants were placed inside a holding room at about 25-27° C. and about 50-60% relative humidity. Percent mortality was assessed 72 hours after treatment.

[9] = system: Diamond Back Moth (Plutella xylostella); test: Diamond back moth leaf-dip test (B.1); conditions: 3rd instar larvae on dipped cabbage leaves, 72 hours after treatment, in comparison with untreated controls
Procedure: The active compound was dissolved at the desired concentration in a mixture of 1:1 (vol:vol) distilled water:aceteone. Surfactant (Kinetic HV) was added at a rate of 0.01% (vol/vol). The test solution was prepared at the day of use.
Leaves of cabbage were dipped in test solution and air-dried. Treated leaves were placed in petri dishes lined with moist filter paper and inoculated with ten 3rd instar larvae. Mortality was recorded 72 hours after treatment. Feeding damages were also recorded using a scale of 0-100%.

COC(=O)c1ccc(C2=NSC(c3cc(Cl)c(F)c(Cl)c3)(C(F)(F)F)C2)c2c1CCCC2 (centres unmarked) [Compound 2-1, Methyl 8-[5-(3,5-dichloro-4-fluoro-phenyl)-5-(trifluoromethyl)-4H-isothiazol-3-yl]tetralin-5-carboxylate]
≥ 75%: mortality at 2500 ppm [1] | mortality at 2500 ppm [2] | mortality at 2500 ppm [3]

O=C(O)c1ccc(C2=NSC(c3cc(Cl)c(F)c(Cl)c3)(C(F)(F)F)C2)c2c1CCCC2 (centres unmarked) [Compound 2-2, 8-[5-(3,5-Dichloro-4-fluoro-phenyl)-5-(trifluoromethyl)-4H-isothiazol-3-yl]tetralin-5-carboxylic acid]
≥ 75%: mortality at 2500 ppm [1] | mortality at 2500 ppm [2] | mortality at 2500 ppm [3]

O=C(O)c1ccc(C2=NSC(c3cc(Cl)c(F)c(Cl)c3)(C(F)(F)F)C2)c2c1CCC2 (centres unmarked) [Compound 1-1, 7-[5-(3,5-Dichloro-4-fluoro-phenyl)-5-(trifluoromethyl)-4H-isothiazol-3-yl]indane-4-carboxylic acid]
≥ 75%: mortality at 2500 ppm [4] | mortality at 2500 ppm [1] | mortality at 2500 ppm [3]

O=C(NCC(F)(F)F)c1ccc(C2=NSC(c3cc(Cl)c(F)c(Cl)c3)(C(F)(F)F)C2)c2c1CCC2 (centres unmarked) [Compound 1-7, 7-[5-(3,5-Dichloro-4-fluoro-phenyl)-5-(trifluoromethyl)-4H-isothiazol-3-yl]-N-(2,2,2-trifluoroethyl)indane-4-carboxamide]
≥ 75%: mortality at 500 ppm [5] | mortality at 500 ppm [6] | mortality at 2500 ppm [7] | mortality at 2500 ppm [4] | mortality at 500 ppm [8] | mortality at 2500 ppm [1] | mortality at 2500 ppm [2] | mortality at 500 ppm [9] | mortality at 2500 ppm [3]

O=C(NCc1ncccn1)c1ccc(C2=NSC(c3cc(Cl)c(F)c(Cl)c3)(C(F)(F)F)C2)c2c1CCCC2 (centres unmarked) [Compound 2-6, 8-[5-(3,5-Dichloro-4-fluoro-phenyl)-5-(trifluoromethyl)-4H-isothiazol-3-yl]-N-(pyrimidin-2-ylmethyl)tetralin-5-carboxamide]
≥ 75%: mortality at 2500 ppm [7] | mortality at 2500 ppm [4] | mortality at 2500 ppm [1] | mortality at 2500 ppm [2] | mortality at 2500 ppm [3]
